{
  "source": "patent US20160320414A1",
  "about": "“Assay for Detection of Transient Intracellular CA2+” (Rajiv Gandhi Centre for Biotechnology, priority 2007, published 2016)",
  "assay_type_in_all_cases": "cell-based",
  "key": {"[1]": {"biological_target": "T1, NMDA receptor formed of NR1 and NR2B subunits (Rattus norvegicus, UniProt P35439+Q00960)", "T1 construct": "expressed in transfected cells; host or cells: HEK-293", "T1 sequence (Q00960 27-1482, other chains not shown)": "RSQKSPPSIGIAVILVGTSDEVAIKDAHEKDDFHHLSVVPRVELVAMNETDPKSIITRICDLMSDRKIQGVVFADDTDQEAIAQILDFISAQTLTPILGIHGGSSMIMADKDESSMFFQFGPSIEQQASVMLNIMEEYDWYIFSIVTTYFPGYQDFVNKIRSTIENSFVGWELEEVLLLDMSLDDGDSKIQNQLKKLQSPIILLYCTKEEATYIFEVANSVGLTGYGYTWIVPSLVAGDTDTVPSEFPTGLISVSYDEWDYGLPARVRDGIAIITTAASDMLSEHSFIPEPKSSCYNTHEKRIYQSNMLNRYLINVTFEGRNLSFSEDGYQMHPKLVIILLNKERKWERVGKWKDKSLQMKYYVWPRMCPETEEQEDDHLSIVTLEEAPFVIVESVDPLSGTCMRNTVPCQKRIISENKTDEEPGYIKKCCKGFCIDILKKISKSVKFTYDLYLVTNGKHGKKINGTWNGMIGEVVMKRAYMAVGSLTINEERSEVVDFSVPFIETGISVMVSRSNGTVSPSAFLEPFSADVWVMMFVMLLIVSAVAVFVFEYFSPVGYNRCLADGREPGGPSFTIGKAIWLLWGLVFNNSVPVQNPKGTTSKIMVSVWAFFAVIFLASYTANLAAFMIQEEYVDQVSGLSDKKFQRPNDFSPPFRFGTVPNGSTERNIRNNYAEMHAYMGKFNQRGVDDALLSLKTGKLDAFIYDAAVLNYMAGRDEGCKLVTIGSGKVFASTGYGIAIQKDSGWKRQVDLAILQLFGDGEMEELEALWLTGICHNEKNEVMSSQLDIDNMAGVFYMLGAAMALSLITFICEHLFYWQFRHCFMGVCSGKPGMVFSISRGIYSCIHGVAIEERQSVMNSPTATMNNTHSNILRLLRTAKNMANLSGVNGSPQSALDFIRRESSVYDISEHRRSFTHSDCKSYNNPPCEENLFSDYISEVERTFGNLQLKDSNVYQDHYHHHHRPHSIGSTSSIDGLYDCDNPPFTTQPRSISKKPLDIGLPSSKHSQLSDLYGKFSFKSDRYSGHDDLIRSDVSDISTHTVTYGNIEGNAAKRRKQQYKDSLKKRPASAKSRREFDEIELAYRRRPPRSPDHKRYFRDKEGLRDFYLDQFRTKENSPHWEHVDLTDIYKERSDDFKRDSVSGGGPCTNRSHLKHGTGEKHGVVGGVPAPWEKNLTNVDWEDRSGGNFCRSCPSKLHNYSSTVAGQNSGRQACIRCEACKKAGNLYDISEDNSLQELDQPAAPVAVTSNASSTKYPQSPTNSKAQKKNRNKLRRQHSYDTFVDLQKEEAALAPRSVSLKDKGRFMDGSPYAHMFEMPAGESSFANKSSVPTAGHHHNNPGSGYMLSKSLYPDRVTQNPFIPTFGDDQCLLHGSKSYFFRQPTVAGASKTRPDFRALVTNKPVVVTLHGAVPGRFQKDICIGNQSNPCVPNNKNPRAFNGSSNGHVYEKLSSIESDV", "assay": "NMDA receptor activity assay (GFP-α-CaMKII translocation signal)", "settings": "HEK-293 cells transfected with NR1, NR2B and GFP-α-CaMKII; for Ca2+ influx / translocation of GFP-α-CaMKII to NR2B upon receptor activation: glutamate 10 μM and glycine 2 μM with 2 mM CaCl2, about 5 minutes, no signal without extracellular Ca2+"}, "[2]": {"biological_target": "T2, vanilloid receptor (TRPV1) (Rattus norvegicus, UniProt O35433)", "T2 construct": "expressed in transfected cells; host or cells: HEK-293", "T2 sequence (O35433 whole entry)": "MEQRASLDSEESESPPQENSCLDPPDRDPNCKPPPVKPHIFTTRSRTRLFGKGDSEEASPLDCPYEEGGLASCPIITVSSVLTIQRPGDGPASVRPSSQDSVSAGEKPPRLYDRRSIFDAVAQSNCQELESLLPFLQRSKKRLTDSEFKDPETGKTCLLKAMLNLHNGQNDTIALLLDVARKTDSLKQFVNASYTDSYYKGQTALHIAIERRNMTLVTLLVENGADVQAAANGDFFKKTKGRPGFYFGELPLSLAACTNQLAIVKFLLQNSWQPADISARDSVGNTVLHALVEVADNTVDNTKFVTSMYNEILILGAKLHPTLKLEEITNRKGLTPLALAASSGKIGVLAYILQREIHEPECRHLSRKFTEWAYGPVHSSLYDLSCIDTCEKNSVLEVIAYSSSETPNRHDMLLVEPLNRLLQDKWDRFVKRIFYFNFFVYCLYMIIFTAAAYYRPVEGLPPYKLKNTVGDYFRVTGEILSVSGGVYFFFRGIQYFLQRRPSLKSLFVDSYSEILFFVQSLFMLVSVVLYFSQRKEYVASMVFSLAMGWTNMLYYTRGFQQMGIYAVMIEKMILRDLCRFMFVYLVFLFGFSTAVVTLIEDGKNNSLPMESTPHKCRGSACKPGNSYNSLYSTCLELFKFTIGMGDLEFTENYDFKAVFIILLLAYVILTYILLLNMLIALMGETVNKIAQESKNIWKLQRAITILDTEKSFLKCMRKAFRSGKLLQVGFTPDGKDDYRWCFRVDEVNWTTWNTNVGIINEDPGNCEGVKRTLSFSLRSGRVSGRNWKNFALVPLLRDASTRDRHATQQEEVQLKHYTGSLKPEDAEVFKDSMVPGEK", "assay": "TRPV1 receptor activity assay (GFP-CaMKII translocation to MLS-NR2B)"}, "[3]": {"biological_target": "T3, AMPA-type glutamate receptor GluR4 (Rattus norvegicus, UniProt P19493)", "T3 construct": "expressed in transfected cells; host or cells: HEK-293", "T3 sequence (P19493 22-902 limits assumed)": "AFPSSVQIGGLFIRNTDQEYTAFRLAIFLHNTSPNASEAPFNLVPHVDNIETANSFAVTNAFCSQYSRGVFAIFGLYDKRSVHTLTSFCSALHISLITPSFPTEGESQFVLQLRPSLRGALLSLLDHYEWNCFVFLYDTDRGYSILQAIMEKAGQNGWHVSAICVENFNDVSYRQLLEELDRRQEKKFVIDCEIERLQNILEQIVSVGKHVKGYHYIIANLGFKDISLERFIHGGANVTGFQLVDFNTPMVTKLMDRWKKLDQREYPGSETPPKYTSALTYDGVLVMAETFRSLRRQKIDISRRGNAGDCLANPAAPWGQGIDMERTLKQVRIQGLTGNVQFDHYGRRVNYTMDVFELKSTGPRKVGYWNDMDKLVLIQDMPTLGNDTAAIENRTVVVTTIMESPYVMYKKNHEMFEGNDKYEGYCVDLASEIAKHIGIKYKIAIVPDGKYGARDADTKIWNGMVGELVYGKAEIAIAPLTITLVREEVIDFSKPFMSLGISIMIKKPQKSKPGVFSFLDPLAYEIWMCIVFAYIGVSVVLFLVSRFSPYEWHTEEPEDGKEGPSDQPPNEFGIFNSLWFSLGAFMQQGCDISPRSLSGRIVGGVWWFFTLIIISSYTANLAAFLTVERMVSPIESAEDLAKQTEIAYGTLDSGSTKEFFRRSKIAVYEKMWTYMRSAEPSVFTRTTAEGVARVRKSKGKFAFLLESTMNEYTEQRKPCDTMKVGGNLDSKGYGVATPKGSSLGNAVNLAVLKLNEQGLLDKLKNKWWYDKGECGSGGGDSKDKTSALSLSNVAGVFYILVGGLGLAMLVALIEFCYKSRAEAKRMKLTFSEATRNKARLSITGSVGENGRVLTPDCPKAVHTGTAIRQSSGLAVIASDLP", "assay": "GluR4 receptor activity assay (GFP-CaMKII translocation to MLS-NR2B)", "description": "HEK-293 cells were cotransfected with GluR4 (pRK5-GluR4, about 0.33 μg/well), MLS-NR2B (pSGH-MLS-NR2B, about 0.33 μg/well) and GFP-CaMKII (pEGFP-CaMKII, about 0.1 μg/well) using lipofectamine reagent. During growth, the medium was supplemented with 50 μM CNQX (inhibitor of AMPA receptor). After 48 hours, the transfected cells were subjected to GluR4 activity assay. The growth medium was removed and the cells were washed twice with Ca^2+ and Mg free HBSS containing 2 mM HEPES and 400 μM EGTA. The GluR4 receptor was activated with HBSS solution containing 10 μM glutamate with or without 2 mM Ca^2+ for about 5 minutes. The inhibitor, CNQX (50 μM), when used, was preincubated for 3 minutes with cells in Ca^2+ and Mg^2+-free HBSS followed by activation using the components as described above with 50 μM CNQX. Cells were then fixed and were mounted onto glass slides."}, "MLS-NR2B": {"system": "MLS-NR2B", "assay": "Ionomycin-mediated Ca2+-influx, cell count of cells with GFP-clustering signal", "settings": "HEK-293 cells with MLS-NR2B", "description": "For transfection, 1.5×10^4 HEK-293 cells were seeded on sterile 12 mm cover slips in 24 well plates (Nunc). After 24 hrs, the cells were cotransfected with plasmid constructs encoding GFP-α-CaMKII (0.1 μg/well) and either of MLS-NR2A or MLS-NR2B (0.25 μg/well), or pRK-NR2A or pRK-NR2B (along with pRc-NR1 for expression of functional NMDA receptor) using Lipofectamine reagent. About 48 hrs following transfection, cells were washed with Hank's balanced salt solution (HBSS) containing 20 mM HEPES and 1.4 mM EGTA. The cells were then incubated with 15 μM ionomycin in the same buffer for 10 min. Subsequently the cells were incubated in the same buffer containing 2 mM CaCl2 and 3 μM ionomycin. Cells were fixed with 3.7% paraformaldehyde in PBS (Phosphate-buffered saline, 10 mM disodium hydrogen phosphate, 1.8 mM potassium dihydrogen orthophosphate, 140 mM sodium chloride, 2.7 mM potassium chloride, pH adjusted to 7.4) at different time points after addition of calcium, mounted with mountant containing DABCO (antifade) and were observed through either a simple fluorescence microscope or a confocal fluorescence microscope (TCS -SP2-AOBS from Leica).\nAppearance of perinuclear granules due to mitochondrial localization of GFP-α-CaMKII is taken as the signal for binding between GFP-α-CaMKII and MLS-NR2B. […]"}},
  "data": [
    {"compound": "C[C@]12N[C@H](Cc3ccccc31)c1ccccc12", "note": "[MK-801]", "values": [
      {"measurement": "Signal generation in presence of NMDA receptor specific inhibitor", "setting": "[1]; activated with glutamate and glycine, 1 mM AP-5 or 10 μM MK-801", "value": "blocked"}
    ]},
    {"compound": "NCC(=O)O", "note": "[glycine]", "values": [
      {"measurement": "Ca2+ influx / translocation of GFP-α-CaMKII to NR2B upon receptor activation", "setting": "[1]", "value": "caused influx of Ca^2+"}
    ]},
    {"compound": "Oc1cc2c(cc1O)CN(C(=S)NCCc1ccc(Cl)cc1)CCC2", "note": "[capsazepine]", "values": [
      {"measurement": "Signal generation due to activation of TRPV1 in presence of inhibitor", "setting": "[2]; capsazepine 50 μM, preincubated 3 minutes, then capsaicin activation with Ca2+ (FIG. 10)", "value": "could be inhibited"}
    ]},
    {"compound": "N[C@@H](CCC(=O)O)C(=O)O", "note": "[glutamate]", "values": [
      {"measurement": "Green punctae (translocation of GFP-CaMKII to MLS-NR2B) upon receptor activation", "setting": "[3]; HEK-293 cells transfected with GluR4, GFP-CaMKII and MLS-NR2B, 10 μM glutamate with 2 mM Ca2+, about 5 minutes", "value": "caused the formation of green punctae"},
      {"measurement": "Ca2+ influx / translocation of GFP-α-CaMKII to NR2B upon receptor activation", "setting": "[1]", "value": "caused influx of Ca^2+"}
    ]},
    {"compound": "COc1cc(CNC(=O)CCCC/C=C/C(C)C)ccc1O", "note": "[capsaicin]", "values": [
      {"measurement": "Green punctae as signal for Ca2+-channel activity of TRPV1 upon activation", "setting": "[2]; HEK-293 cells cotransfected with TRPV1, GFP-CaMKII and MLS-NR2B, capsaicin 3 μM or 10 nM with 2 mM Ca2+, 5 minutes", "value": "developed green punctae"}
    ]},
    {"compound": "N#Cc1cc2[nH]c(=O)c(=O)[nH]c2cc1[N+](=O)[O-]", "note": "[CNQX]", "values": [
      {"measurement": "Generation of the signal in presence of specific inhibitor", "setting": "[3]; CNQX 50 μM, preincubated 3 minutes, then glutamate activation (FIG. 11)", "value": "could be blocked"}
    ]},
    {"compound": "T286D-CaMKII: T286D mutant form of the GFP fusion of α-CaMKII used as Ca2+ sensor", "values": [
      {"measurement": "Cell count (percentage of green cells with binding signal) relative to wild-type GFP-α-CaMKII", "setting": "MLS-NR2B; ionomycin-mediated Ca2+ influx (FIG. 5)", "value": "increased (more than two fold) cell count"},
      {"measurement": "Lowest extracellular [Ca2+] giving response", "setting": "MLS-NR2B; ionomycin-mediated Ca2+ influx, different extracellular [Ca2+] (FIG. 6)", "value": 2, "unit": "nM"}
    ]}
  ]
}
